Measurements taken from patent publication US9265253B2, “Use of macrocyclic picolinamides as fungicides” (DOW AGROSCIENCES LLC, priority 2013, dated 2016).
Where two headings read alike, the source gives them in different places.

Legend:
Type in all cases: in vivo
[1] = test system: Puccinia triticina; Synonym: Puccinia recondite f. Sp. Tritici; test: Wheat Brown Rust (PUCCRT) disease control; details: Puccinia triticina, topical; for pest or weed control at 100 ppm: rate 100 ppm; for pest or weed control at 121.5 g/ha: rate 121.5 g/H
How it was run: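 Brown rust on first-leaf Yuma wheat: spore inoculation before or after spray application (acetone/Triton X-100 solution, or EC with Trycol in track spray), overnight 100% RH at 22 °C, disease developed at 24 °C. Severity scored 0–100% and converted to percent control against untreated.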

Venturia inaequalis = test: Apple Scab (VENTIN) disease control; details: Venturia inaequalis, topical, 24 h, 1 Day Protectant, read-out: Disease Control VENTIN 1 DP
Experimental: Technical grades of materials were dissolved in acetone, which were then mixed with nine volumes of water containing 110 ppm Triton X-100. The fungicide solutions were applied onto wheat seedlings using an automated booth sprayer to run-off. All sprayed plants were allowed to air dry prior to further handling. All fungicides were evaluated using the aforementioned method for their activity vs. all target diseases. Wheat leaf blotch and brown rust activity were also evaluated using track spray applications, in which case the fungicides were formulated as EC formulations, containing 0.1% Trycol 5941 in the spray solutions. Wheat plants (variety Yuma) were grown from seed in a greenhouse in 50% mineral soil/50% soil-less Metro mix until the first leaf was fully emerged, with 7-10 seedlings per pot. These plants were inoculated with an aqueous spore suspension of Septoria tritici either prior to or after fungicide treatments. After inoculation the plants were kept in 100% relative humidity (one day in a dark dew chamber followed by two to three days in a lighted dew chamber at 20° C.) to permit spores to germinate and infect the leaf. The plants were then transferred to a greenhouse set at 20° C. for disease to develop. When disease symptoms were fully expressed on the 1st leaves of untreated plants, infection levels were assessed on a scale of 0 to 100 percent disease severity. Percent disease control was calculated using the ratio of disease severity on treated plants relative to untreated plants. Apple seedlings (variety McIntosh) were grown in soil-less Metro mix, with one plant per pot. Seedlings with two expanding young leaves at the top (older leaves at bottom of the plants were trimmed) were used in the test. Plants were inoculated with a spore suspension of Venturia inaequalis 24 hr after fungicide treatment and kept in a 22° C. dew chamber with 100% RH for 48 hr, and then moved to a greenhouse set at 20° C. for disease to develop. Fungicide formulation, application and disease assessment on the sprayed leaves followed the procedures as described in the Example A.

Phakopsora pachyrhizi = test: Asian Soybean Rust (PHAKPA) disease control; details: Phakopsora pachyrhizi, topical
How it was run: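 Compounds in acetone diluted with nine volumes water containing 0.011% Tween 20, sprayed to run-off on two-week-old Williams 82 soybean seedlings, inoculated 3 days before or 1 day after treatment. Plants held 24 h in dark dew room at 22 °C, 100% RH, then at 23 °C; disease severity scored on sprayed leaves.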

[2] = test system: Magnaporthe grisea; Anamorph: Pyricularia oryzae; test: whole plant or invertebrate; details: Pyricularia oryzae, topical, 24 h, read-out: Disease Control PYRIOR 1 DP
[3] = test system: Mycosphaerella graminicola; Anamorph: Septoria tritici; test: Leaf Blotch of Wheat (SEPTTR) disease control; details: Zymoseptoria tritici; for pest or weed control at 100 ppm: rate 100 ppm; for pest or weed control at 121.5 g/ha: rate 121.5 g/H
How it was run: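 Percent disease control is derived from Septoria tritici leaf blotch severity (0 to 100 percent) on treated versus untreated wheat seedlings. Plants get fungicide spray to run-off, with inoculation either preceding or following application, then humid incubation at 20° C.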

[4] = 24 h, 1 Day Protectant, read-out: PUCCRT 1 DP disease control
[5] = 72 h, 3 Day Curative, read-out: PUCCRT 3 DC disease control
[6] = 24 h, 1 Day Protectant, read-out: Disease Control PHAKPA 1DP
[7] = 72 h, 3 Day Curative, read-out: Disease Control PHAKPA 3DC
[8] = 24 h, 1 Day Protectant, read-out: SEPTTR 1 DP disease control
[9] = 72 h, 3 Day Curative, read-out: SEPTTR 3 DC disease control

Compound	pest or weed control at 100 ppm [1, 4]	pest or weed control at 121.5 g/ha [1, 4]	pest or weed control at 100 ppm [1, 5]	pest or weed control at 121.5 g/ha [1, 5]	pest or weed control at 100 ppm (Venturia inaequalis)	pest or weed control at 25 ppm (Phakopsora pachyrhizi; [6])	pest or weed control at 25 ppm (Phakopsora pachyrhizi; [7])	pest or weed control at 100 ppm [2]	pest or weed control at 100 ppm [3, 8]	pest or weed control at 121.5 g/ha [3, 8]	pest or weed control at 100 ppm [3, 9]	pest or weed control at 121.5 g/ha [3, 9]
CCCO[C@@H]1[C@@H](Cc2ccccc2)CCC[C@H](NC(=O)c2nccc(OC)c2OCOC(=O)COCC)C(=O)O[C@H]1C [Compound F174]	80 to 100%	80 to 100%	80 to 100%	80 to 100%	80 to 100%	80 to 100%	0 to 80%	80 to 100%	80 to 100%	80 to 100%	80 to 100%	80 to 100%
COc1ccnc(C(=O)N[C@H]2CCC[C@H](CC(F)F)[C@@H](Oc3ccccc3)[C@H](C)OC2=O)c1OC(C)=O [Compound F82]	80 to 100%	80 to 100%	80 to 100%	80 to 100%	0 to 80%	80 to 100%	80 to 100%	80 to 100%	80 to 100%	80 to 100%	80 to 100%	80 to 100%
CCOCC(=O)OCOc1c(OC)ccnc1C(=O)N[C@H]1CCC[C@H](Cc2ccc(F)cc2)[C@@H](OCC2CC2)[C@H](C)OC1=O [Compound F164]	80 to 100%	80 to 100%	80 to 100%	0 to 80%	80 to 100%	80 to 100%	0 to 80%	80 to 100%	80 to 100%	80 to 100%	80 to 100%	80 to 100%
COCC[C@H]1CCC[C@H](NC(=O)c2nccc(OC)c2OCOC(C)=O)C(=O)O[C@@H](C)[C@@H]1Oc1ccccc1 [Compound F130]	80 to 100%	80 to 100%	80 to 100%	80 to 100%	0 to 80%	80 to 100%	80 to 100%	80 to 100%	80 to 100%	80 to 100%	0 to 80%	80 to 100%
COc1ccnc(C(=O)N[C@H]2CCC[C@H](Cc3ccccc3)[C@@H](OCC(C)C)[C@H](C)OC2=O)c1OCOC(C)=O [Compound F106]	80 to 100%	80 to 100%	80 to 100%	80 to 100%	0 to 80%	80 to 100%	0 to 80%	80 to 100%	80 to 100%	80 to 100%	80 to 100%	80 to 100%
CCCO[C@@H]1[C@@H](Cc2ccc(F)cc2)CCC[C@H](NC(=O)c2nccc(OC)c2OCOC(=O)COCC)C(=O)O[C@H]1C [Compound F167]	80 to 100%	80 to 100%	80 to 100%	80 to 100%	80 to 100%	80 to 100%	0 to 80%	80 to 100%	80 to 100%	80 to 100%	80 to 100%	80 to 100%
CCCO[C@@H]1[C@@H](CCC(C)C)CCC[C@H](NC(=O)c2nccc(OC)c2OCOC(C)=O)C(=O)O[C@H]1C [Compound F92]	80 to 100%	80 to 100%	80 to 100%	80 to 100%	80 to 100%	80 to 100%	80 to 100%	80 to 100%	80 to 100%	80 to 100%	80 to 100%	80 to 100%
